Laboratory results: US20260263410A1, “USE OF CALCIUM SENSING RECEPTOR ANTAGONISTS FOR TREATING OCULAR DISORDERS” (THE REGENTS OF THE UNIVERSITY OF CALIFORNIA, priority 2023, published 2026)
Values joined by “and” are separate entries in the source; they are usually repeats but may differ in a detail not shown here. Equal values may be shown once.

Legend:
CFTR = assay: OSPD, forskolin / CFTRinh-172-induced change (CFTR-mediated Cl− secretion); assay type: in vivo, mice
Excerpt: Using pharmacological activators and inhibitors, OSPD allows studying activities of various ion channels/transporters in the ocular surface.^12 In these studies, baseline OSPD is established using a high Cl^− solution that mimics the tear fihn. OSPD changes induced by amiloride (ENaC inhibitor) indicates Na^+ transport via ENaC. Similarly, OSPD changes induced by forskolin (cAMP agonist) and CFTRinh-172 (CFTR inhibitor) indicates Cl^− secretion via cAMP-activated Cl^− channels and particularly CFTR. Lastly, OSPD changes induced by Ca^2+ agonist ATP indicates Cl^− secretion mediated by CaCCs.
Sequential perfusion of the ocular surface with solutions containing amiloride (ENaC inhibitor), forskolin (cAMP agonist), CFTRinh-172 (CFTR inhibitor), and ATP (Ca^2+ agonist) thus allows determining activities of ENaC, CFTR, and CaCC ion channels, respectively (FIG. 4A).
Using CaSR antagonist NPS-2143 in the OSPD experiments confirmed the hypothesis. Perfusion of ocular surface with 30 μM NPS-2143 led to large hyperpolarization (−13 mV), which was 70% of subsequently applied maximal forskolin-induced hyperpolarization after which cAMP agonist forskolin had minimal further secretory effect (FIGS. 6A and 6B). […]
Ocular surface potential difference (OSPD) and tear fluid volume measurements were performed in mice with topically applied cinacalcet (CaSR activator) and NPS-2143 (CaSR inhibitor). […] As described previously,^12, 14, 15 open-circuit transepithelial potential differences were measured in response to serial perfusions of different isoosmolar (310 mOsm/kg H2O) solutions over the ocular surface at 5-10 ml/min. […] Each solution was perfused onto the ocular surface using a gravity perfusion system (ALA Scientific: Farmingdale, NY, USA) for 1-3 minutes until a stable OSPD reading was obtained.

[1] = Tear fluid volume by endodontic absorbent paper point tear test (EAPPTT); assay type: in vivo, BALB/c mice
Method: Endodontic absorbent paper point tear tests (EAPPTT) […] PBS with 30 μM NPS-2143 (or 0.2% DMSO control) in both eyes. […] The wetted length was measured using a millimeter-scale ruler viewed under a magnifying glass. All mice were kept at ambient conditions (approximately 50% humidity and 21° C.) and provided unrestricted access to food and water.

Row | SMILES | reversal of effect by CFTR inhibitor CFTRinh-172 (CFTR; 10 μM CFTRinh-172 after NPS-2143 and forskolin) | Cl− secretory effect in mouse ocular surface (CFTR; applied topically) | increase in tear fluid volume ([1]; single dose topical 0.001% or 30 μM, for at least eight hours) | increase in tear fluid volume ([1]; topical 0.001% or 30 μM, single 10 μL dose, as early as 15 minutes after treatment) | inhibition of CFTR activity (lower CFTRinh-172 response) (CFTR; 30 μM cinacalcet, 10 μM CFTRinh-172, concentration-dependent)
1 | CC(C)(Cc1ccc2ccccc2c1)NC[C@@H](O)COc1cccc(Cl)c1C#N [NPS-2143, 2-chloro-6-[(2R)-3-([1,1-dimethyl-2-(2-naphthalenyl)ethyl]amino)-2-hydroxypropoxy]benzonitrile] | partially reversed | large Cl^− secretory current | > 60% | 60% and ~ 60% | –
2 | C[C@@H](NCCCc1cccc(C(F)(F)F)c1)c1cccc2ccccc12 [cinacalcet] | – | – | – | – | up to 90%
